Measurements from article PMC4279228 (Molecular Biology of the Cell, 2015).
pKd: −log10 of the molar value.

Target: LFA-1 (CD11a/CD18, αLβ2 integrin) (Homo sapiens, UniProt P05107+P20701)
Test: Kd of unlabelled compound with XVA-FITC probe, flow cytometry on cells
Type: cell-based

Sequence of LFA-1 (CD11a/CD18, αLβ2 integrin) (P20701 26-1170): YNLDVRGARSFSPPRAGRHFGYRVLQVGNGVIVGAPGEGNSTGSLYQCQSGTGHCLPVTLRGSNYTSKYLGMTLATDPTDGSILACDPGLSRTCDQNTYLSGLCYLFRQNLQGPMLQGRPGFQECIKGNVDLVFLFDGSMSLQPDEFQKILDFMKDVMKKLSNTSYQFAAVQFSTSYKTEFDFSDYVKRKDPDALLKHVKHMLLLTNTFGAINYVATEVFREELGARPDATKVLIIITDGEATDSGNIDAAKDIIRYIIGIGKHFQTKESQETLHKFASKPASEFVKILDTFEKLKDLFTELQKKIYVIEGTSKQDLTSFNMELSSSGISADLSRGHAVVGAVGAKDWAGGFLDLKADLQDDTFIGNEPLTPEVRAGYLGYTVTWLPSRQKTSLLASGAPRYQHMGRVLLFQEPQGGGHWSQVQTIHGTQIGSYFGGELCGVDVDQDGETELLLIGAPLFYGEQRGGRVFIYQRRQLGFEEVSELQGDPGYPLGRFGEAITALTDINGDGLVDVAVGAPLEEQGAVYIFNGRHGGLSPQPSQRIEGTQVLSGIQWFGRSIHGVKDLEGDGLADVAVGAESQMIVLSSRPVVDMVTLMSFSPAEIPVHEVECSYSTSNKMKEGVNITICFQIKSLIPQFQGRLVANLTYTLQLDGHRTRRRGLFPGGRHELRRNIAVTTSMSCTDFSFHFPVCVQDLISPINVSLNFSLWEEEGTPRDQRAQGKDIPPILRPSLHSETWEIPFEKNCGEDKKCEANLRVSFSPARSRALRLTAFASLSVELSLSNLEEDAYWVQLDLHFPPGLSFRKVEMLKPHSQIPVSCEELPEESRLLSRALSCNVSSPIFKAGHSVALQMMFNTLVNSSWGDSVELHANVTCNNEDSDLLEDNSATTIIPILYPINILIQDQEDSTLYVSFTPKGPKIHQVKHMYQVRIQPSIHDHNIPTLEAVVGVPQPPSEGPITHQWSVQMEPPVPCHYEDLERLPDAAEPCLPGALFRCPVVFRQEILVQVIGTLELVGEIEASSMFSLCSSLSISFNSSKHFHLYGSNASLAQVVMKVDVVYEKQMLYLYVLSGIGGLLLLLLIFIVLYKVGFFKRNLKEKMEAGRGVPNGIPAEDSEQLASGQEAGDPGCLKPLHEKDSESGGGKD
Sequence of LFA-1 (CD11a/CD18, αLβ2 integrin) (P05107 23-769): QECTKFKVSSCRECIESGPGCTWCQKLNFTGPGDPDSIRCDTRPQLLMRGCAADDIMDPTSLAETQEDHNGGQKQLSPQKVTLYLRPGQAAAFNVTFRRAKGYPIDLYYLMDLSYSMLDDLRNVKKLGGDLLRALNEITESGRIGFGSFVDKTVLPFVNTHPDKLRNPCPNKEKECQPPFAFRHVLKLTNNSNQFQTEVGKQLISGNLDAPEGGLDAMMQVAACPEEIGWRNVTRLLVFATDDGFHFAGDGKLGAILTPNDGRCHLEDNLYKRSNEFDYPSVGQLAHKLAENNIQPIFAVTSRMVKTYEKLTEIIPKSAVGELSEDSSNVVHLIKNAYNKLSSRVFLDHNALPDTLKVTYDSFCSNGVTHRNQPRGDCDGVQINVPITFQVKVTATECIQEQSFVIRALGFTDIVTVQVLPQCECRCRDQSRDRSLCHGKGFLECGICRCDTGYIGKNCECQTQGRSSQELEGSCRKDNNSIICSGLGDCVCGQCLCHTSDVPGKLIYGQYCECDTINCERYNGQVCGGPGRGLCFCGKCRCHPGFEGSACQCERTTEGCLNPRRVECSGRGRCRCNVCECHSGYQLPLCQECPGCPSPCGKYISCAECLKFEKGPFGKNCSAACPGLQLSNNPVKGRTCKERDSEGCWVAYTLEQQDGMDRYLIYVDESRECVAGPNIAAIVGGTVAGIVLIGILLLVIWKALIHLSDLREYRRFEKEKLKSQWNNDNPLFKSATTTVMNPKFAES

pKd: 7.05 to 7.10
Structure (SMILES): O=C(NCc1cccc(O)c1)c1cc(Cl)c(C(=O)N[C@@H](CNC(=O)c2cc(O)cc(O)c2)C(=O)O)c(Cl)c1 [XVA-143, (S)-2-[4-(3-hydroxybenzylcarbamoyl)-2,6-dichlorobenzoylamino]-3-(3,5-dihydroxybenzoylamino) propionic acid]
